Among the test systems are UO-31 renal; HCT-116 colon; MALME-3M melanoma; NCI-H226 lung; SF-268 CNS; KM12 colon; SK-MEL-28 melanoma; SF-295 CNS; NCI-H522 lung; A498 renal; SK-MEL-2 melanoma; RXF 393 renal; HOP-62 NSCLC; OVCAR-4 ovarian; MDA-N; 786-0 renal; CAKI-1 renal; DU-145 prostate; SW-620 colon; EKVX NSCLC.
Experiment in all cases: NCI anticancer screen, dose series, 48 h

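All cell lines were grown in 96-well plates and treated with compound for 48 hours. The concentration for full growth arrest is given as TGI.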

In the case of `CC(=O)OCC1OC(n2c(C)cc(C)c(C#N)c2=S)C(OC(C)=O)C(OC(C)=O)C1OC(C)=O` (stereo not drawn), the TGI in the assay on UO-31 renal, in the assay on HCT-116 colon, in the assay on MALME-3M melanoma, with NCI-H226 lung, in the assay on SF-268 CNS and with KM12 colon was > 100 µM throughout. Besides, the TGI in the assay with SK-MEL-28 melanoma, in the assay on SF-295 CNS, with NCI-H522 lung, in the assay on A498 renal, with SK-MEL-2 melanoma and with RXF 393 renal was > 100 µM throughout. The TGI with HOP-62 NSCLC, in the assay on OVCAR-4 ovarian, in the assay with MDA-N, with 786-0 renal, with CAKI-1 renal and in the assay with DU-145 prostate was > 100 µM throughout.
As to `O=c1nc(N2CCNCC2)oc2cc(Cl)oc(=O)c12`, the TGI is 21.1 µM with SW-620 colon; 23 µM in the assay with UO-31 renal; 7.53 µM with HCT-116 colon; 14.5 µM in the assay with MALME-3M melanoma; 37.9 µM with NCI-H226 lung; 15.9 µM in the assay with SF-268 CNS. In addition, the TGI in the assay with KM12 colon worked out at 15.5 µM; with SK-MEL-28 melanoma, 15.8 µM; in the assay on EKVX NSCLC, 19.4 µM; in the assay with SF-295 CNS, 20.9 µM; in the assay on NCI-H522 lung it was 5.9 µM; in the assay with A498 renal it was 37.9 µM. The TGI with SK-MEL-2 melanoma amounted to 29.1 µM; in the assay on RXF 393 renal it was 24.8 µM; in the assay with HOP-62 NSCLC it was 14 µM; in the assay with OVCAR-4 ovarian, 21.6 µM; in the assay with MDA-N, 9.06 µM; in the assay with 786-0 renal it was 8.66 µM. In addition, the values for the TGI with CAKI-1 renal and with DU-145 prostate were 9.49 µM and 21.8 µM, respectively.
For the compound `CCOC(=O)[C@H](C)OC(=O)[C@@](C)(NC(=O)c1ccccc1C(=O)OC)[C@@H]1NC=C(C(=O)OC)CS1`, the TGI in the assay on SW-620 colon, in the assay with UO-31 renal, in the assay on HCT-116 colon, with MALME-3M melanoma, in the assay on NCI-H226 lung and in the assay with SF-268 CNS was > 100 µM throughout. The TGI in the assay on KM12 colon, with SK-MEL-28 melanoma, with EKVX NSCLC, with SF-295 CNS, in the assay with NCI-H522 lung and in the assay with A498 renal was > 100 µM each time. The TGI in the assay with SK-MEL-2 melanoma was > 100 µM; in the assay on RXF 393 renal it was > 100 µM; in the assay on HOP-62 NSCLC, > 100 µM; with OVCAR-4 ovarian, > 100 µM; in the assay on MDA-N it was 64.6 µM; with 786-0 renal, > 100 µM. The TGI with CAKI-1 renal and in the assay with DU-145 prostate was > 100 µM throughout.
In the case of `COC1=C(Br)[C@H](O)[C@@]2(C=C1Br)CC(C(=O)NCCCOc1c(Br)cc(C(O)CNC(C)=O)cc1Br)=NO2` (stereo partly drawn), the TGI in the assay on SW-620 colon, with UO-31 renal, with HCT-116 colon, with MALME-3M melanoma, with NCI-H226 lung and in the assay with SF-268 CNS was > 10 µM each time. Further, the TGI in the assay with KM12 colon, with SK-MEL-28 melanoma, in the assay on SF-295 CNS, in the assay with NCI-H522 lung, with A498 renal and in the assay on SK-MEL-2 melanoma was > 10 µM in each case. In addition, the TGI is > 10 µM in the assay on RXF 393 renal; > 10 µM in the assay with HOP-62 NSCLC; > 10 µM in the assay on OVCAR-4 ovarian; 4.4 µM in the assay on MDA-N; > 10 µM in the assay on 786-0 renal; > 10 µM in the assay with CAKI-1 renal. Also, the TGI in the assay with DU-145 prostate is > 10 µM.
For `CCC(=O)O[C@H]1CC[C@H]2[C@@H]3CCC4=C/C(=N/OC(=O)c5cccc6cc7ccccc7nc56)CC[C@]4(C)[C@H]3CC[C@]12C`, the TGI in the assay on SW-620 colon, in the assay on HCT-116 colon, in the assay with MALME-3M melanoma, in the assay with NCI-H226 lung, in the assay on SF-268 CNS and with KM12 colon was > 100 µM in each case. Also, the TGI in the assay on SK-MEL-28 melanoma, with EKVX NSCLC, in the assay with NCI-H522 lung, in the assay on A498 renal, in the assay with SK-MEL-2 melanoma and in the assay with RXF 393 renal was > 100 µM each time. Moreover, the TGI with HOP-62 NSCLC, with OVCAR-4 ovarian, with MDA-N, in the assay on 786-0 renal, in the assay on CAKI-1 renal and in the assay on DU-145 prostate was > 100 µM in each case.
Regarding `CCSC1=N/C(=C\c2ccc(N(C)C)cc2)C(Cl)=N1`, the TGI in the assay on SW-620 colon, in the assay on UO-31 renal, in the assay on HCT-116 colon, with MALME-3M melanoma, in the assay on NCI-H226 lung and in the assay on SF-268 CNS was > 100 µM in each case. Moreover, the TGI in the assay with KM12 colon, with SK-MEL-28 melanoma, in the assay on EKVX NSCLC, in the assay on SF-295 CNS, with NCI-H522 lung and with A498 renal was > 100 µM in each case. The TGI in the assay on SK-MEL-2 melanoma, with RXF 393 renal, in the assay with HOP-62 NSCLC, in the assay on OVCAR-4 ovarian, in the assay with MDA-N and in the assay on 786-0 renal was > 100 µM in each case. Besides, the TGI in the assay with CAKI-1 renal and in the assay on DU-145 prostate was > 100 µM each time.
As for `CC(=O)O[C@H]1CC[C@@]2(C)C(=CC[C@H]3[C@@H]4C/C(=C\c5ccc(N(C)C)cc5)[C@H](OC(C)=O)[C@@]4(C)CC[C@@H]32)C1`, the TGI in the assay on SW-620 colon came to 46.4 µM; in the assay on UO-31 renal it was 27.7 µM; with HCT-116 colon, 25.3 µM; in the assay with MALME-3M melanoma it was 29.7 µM; in the assay on NCI-H226 lung, 33.4 µM; in the assay on SF-268 CNS it was 26.7 µM. The TGI in the assay with KM12 colon is > 100 µM; in the assay on SK-MEL-28 melanoma, 32.8 µM; in the assay on EKVX NSCLC, 36.7 µM; in the assay on SF-295 CNS, 21 µM; with A498 renal, 36.6 µM; in the assay with SK-MEL-2 melanoma, 22.5 µM. Also, the TGI is 42.7 µM in the assay on RXF 393 renal; 51.6 µM in the assay on HOP-62 NSCLC; 69 µM in the assay with OVCAR-4 ovarian; 36 µM with MDA-N; 19.1 µM in the assay on 786-0 renal; > 100 µM with DU-145 prostate.
